Measurements reported in paper PMC7203735, “Characterization of an A-Type Muscarinic Acetylcholine Receptor and Its Possible Non-neuronal Role in the Oriental Armyworm, Mythimna separata Walker (Lepidoptera: Noctuidae)” (Frontiers in Physiology, 2020).
Read-outs that look alike come from different tables or passages of the source.

Target: T1, Ms A-type mAChR (Ms A-mAChR) (Mythimna separata, UniProt A0A2D1QUJ3)
T1 sequence (A0A2D1QUJ3 1-601): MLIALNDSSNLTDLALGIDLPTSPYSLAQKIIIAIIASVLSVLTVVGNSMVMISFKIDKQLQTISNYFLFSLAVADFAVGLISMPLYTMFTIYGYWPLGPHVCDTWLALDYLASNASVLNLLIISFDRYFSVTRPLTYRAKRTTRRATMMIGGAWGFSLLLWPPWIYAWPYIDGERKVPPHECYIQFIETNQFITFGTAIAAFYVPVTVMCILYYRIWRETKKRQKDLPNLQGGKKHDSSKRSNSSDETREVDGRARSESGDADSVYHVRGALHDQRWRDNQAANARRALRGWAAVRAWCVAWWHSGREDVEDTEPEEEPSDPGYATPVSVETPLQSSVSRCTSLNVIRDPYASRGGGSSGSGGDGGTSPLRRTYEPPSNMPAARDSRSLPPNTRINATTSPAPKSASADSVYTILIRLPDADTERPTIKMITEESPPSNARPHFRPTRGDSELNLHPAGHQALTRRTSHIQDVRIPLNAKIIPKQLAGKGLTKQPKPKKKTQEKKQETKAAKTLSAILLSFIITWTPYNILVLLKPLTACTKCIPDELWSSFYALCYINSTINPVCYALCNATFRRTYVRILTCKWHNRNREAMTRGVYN
Assay: FLIPR calcium mobilization in transfected HEK […] cells
Type: cell-based

SMILES | EC50 (read-out: EC50) [nM] | EC50 [nM]
C[N+](C)(C)CCOC(N)=O [carbachol] | 125 | –
C[C@@H]1O[C@H](C[N+](C)(C)C)C[C@H]1O [muscarine] | – | 388
